Source: the kinase profiling compilation of Christmann-Franck et al. (2016)

Tests used:
Test in all cases: KINOMEscan competition binding
Conditions in all cases: compound 10.0 µM
MAPK6 (human) = MAPK6 (human) (UniProt Q16659)
[1] = target: JAK1 JH2 pseudokinase (human) (UniProt P23458)
CDC42BPG (human) = CDC42BPG (human) (UniProt Q6DT37)
NUAK1 (human) = NUAK1 (human) (UniProt O60285)
RIPK2 (human) = RIPK2 (human) (UniProt O43353)
PIK3CB (human) = PIK3CB (human) (UniProt P42338)
NEK6 (human) = NEK6 (human) (UniProt Q9HC98)
IKBKE (human) = IKBKE (human) (UniProt Q14164)
MELK (human) = MELK (human) (UniProt Q14680)
MAPK15 (human) = MAPK15 (human) (UniProt Q8TD08)
PIK3C2B (human) = PIK3C2B (human) (UniProt O00750)
ACVR2A (human) = ACVR2A (human) (UniProt P27037)
AKT1 (human) = AKT1 (human) (UniProt P31749)
ACVRL1 (human) = ACVRL1 (human) (UniProt P37023)
INSR (human) = INSR (human) (UniProt P06213)
[2] = target: JAK3 JH1 catalytic (human) (UniProt P52333)
STK3 (human) = STK3 (human) (UniProt Q13188)
CSK (human) = CSK (human) (UniProt P41240)
ZAP70 (human) = ZAP70 (human) (UniProt P43403)
PRKCQ (human) = PRKCQ (human) (UniProt Q04759)
PAK7 (human) = PAK7 (human) (UniProt Q9P286)
NEK7 (human) = NEK7 (human) (UniProt Q8TDX7)
TEK (human) = TEK (human) (UniProt Q02763)
MAP2K4 (human) = MAP2K4 (human) (UniProt P45985)
RAF1 (human) = RAF1 (human) (UniProt P04049)
IGF1R (human) = IGF1R (human) (UniProt P08069)
MST4 (human) = MST4 (human) (UniProt Q9P289)
WEE1 (human) = WEE1 (human) (UniProt P30291)
FGR (human) = FGR (human) (UniProt P09769)
TNIK (human) = TNIK (human) (UniProt Q9UKE5)
TLK1 (human) = TLK1 (human) (UniProt Q9UKI8)
PRKCD (human) = PRKCD (human) (UniProt Q05655)
PHKG1 (human) = PHKG1 (human) (UniProt Q16816)
[3] = target: JAK2 JH1 catalytic (human) (UniProt O60674)
STK36 (human) = STK36 (human) (UniProt Q9NRP7)
NTRK1 (human) = NTRK1 (human) (UniProt P04629)
PDGFRA (human) = PDGFRA (human) (UniProt P16234)
BRSK2 (human) = BRSK2 (human) (UniProt Q8IWQ3)
ERBB4 (human) = ERBB4 (human) (UniProt Q15303)
PRKG2 (human) = PRKG2 (human) (UniProt Q13237)

Chain of TNIK (human) (Q9UKE5 whole entry, looked up): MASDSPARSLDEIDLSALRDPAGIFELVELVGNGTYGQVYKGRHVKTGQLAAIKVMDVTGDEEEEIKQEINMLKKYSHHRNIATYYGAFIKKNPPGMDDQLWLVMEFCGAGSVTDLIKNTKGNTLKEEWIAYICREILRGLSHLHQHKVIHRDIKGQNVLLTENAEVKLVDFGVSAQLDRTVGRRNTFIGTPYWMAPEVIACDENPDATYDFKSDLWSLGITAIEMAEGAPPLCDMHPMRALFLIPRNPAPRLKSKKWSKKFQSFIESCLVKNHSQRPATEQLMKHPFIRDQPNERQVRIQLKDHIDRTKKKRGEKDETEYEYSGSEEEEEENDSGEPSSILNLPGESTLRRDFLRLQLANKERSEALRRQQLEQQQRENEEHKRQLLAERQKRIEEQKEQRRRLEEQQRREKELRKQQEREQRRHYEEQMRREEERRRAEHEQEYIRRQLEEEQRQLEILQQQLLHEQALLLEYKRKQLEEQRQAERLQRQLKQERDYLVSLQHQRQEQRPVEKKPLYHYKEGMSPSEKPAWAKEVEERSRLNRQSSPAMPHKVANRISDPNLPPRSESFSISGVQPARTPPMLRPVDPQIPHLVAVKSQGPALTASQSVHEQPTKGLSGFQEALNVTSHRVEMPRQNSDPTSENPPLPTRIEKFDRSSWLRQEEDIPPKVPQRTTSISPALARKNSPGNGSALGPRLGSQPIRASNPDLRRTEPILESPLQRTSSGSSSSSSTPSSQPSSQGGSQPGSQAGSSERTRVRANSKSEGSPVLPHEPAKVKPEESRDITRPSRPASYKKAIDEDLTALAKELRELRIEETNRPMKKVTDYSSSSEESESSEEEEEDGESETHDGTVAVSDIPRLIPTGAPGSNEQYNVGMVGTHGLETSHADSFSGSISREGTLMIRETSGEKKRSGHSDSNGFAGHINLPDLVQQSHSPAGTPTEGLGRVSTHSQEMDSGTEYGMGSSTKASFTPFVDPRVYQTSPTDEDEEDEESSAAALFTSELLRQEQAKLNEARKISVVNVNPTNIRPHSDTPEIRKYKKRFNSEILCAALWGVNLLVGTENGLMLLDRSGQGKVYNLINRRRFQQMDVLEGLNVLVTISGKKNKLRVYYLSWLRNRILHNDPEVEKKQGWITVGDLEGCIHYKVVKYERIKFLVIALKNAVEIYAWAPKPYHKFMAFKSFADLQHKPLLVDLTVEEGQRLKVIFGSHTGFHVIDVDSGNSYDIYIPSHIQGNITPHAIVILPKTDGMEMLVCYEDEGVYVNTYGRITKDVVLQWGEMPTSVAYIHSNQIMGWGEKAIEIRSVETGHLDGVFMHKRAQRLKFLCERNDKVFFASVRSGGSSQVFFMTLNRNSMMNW
Chain of MAPK6 (human) (Q16659 whole entry, looked up): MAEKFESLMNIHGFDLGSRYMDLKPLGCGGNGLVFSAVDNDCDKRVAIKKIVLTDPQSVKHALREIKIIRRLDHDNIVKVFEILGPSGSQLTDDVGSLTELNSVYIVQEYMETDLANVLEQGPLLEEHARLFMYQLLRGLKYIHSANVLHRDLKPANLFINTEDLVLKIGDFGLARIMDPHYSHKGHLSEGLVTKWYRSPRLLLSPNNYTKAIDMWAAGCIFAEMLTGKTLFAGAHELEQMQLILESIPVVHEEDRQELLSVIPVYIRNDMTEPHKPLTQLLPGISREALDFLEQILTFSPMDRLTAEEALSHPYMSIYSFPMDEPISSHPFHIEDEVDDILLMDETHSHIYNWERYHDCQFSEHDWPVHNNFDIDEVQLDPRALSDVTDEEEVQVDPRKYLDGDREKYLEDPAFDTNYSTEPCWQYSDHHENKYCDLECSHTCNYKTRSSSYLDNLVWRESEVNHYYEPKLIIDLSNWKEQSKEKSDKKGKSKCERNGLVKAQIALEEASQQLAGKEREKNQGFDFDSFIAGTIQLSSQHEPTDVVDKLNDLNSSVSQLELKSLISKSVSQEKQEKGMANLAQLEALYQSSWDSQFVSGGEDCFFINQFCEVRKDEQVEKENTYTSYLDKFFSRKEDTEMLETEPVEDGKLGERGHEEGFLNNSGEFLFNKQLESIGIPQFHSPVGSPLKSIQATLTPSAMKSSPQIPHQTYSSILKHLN
Chain of PAK7 (human) (Q9P286 whole entry, looked up): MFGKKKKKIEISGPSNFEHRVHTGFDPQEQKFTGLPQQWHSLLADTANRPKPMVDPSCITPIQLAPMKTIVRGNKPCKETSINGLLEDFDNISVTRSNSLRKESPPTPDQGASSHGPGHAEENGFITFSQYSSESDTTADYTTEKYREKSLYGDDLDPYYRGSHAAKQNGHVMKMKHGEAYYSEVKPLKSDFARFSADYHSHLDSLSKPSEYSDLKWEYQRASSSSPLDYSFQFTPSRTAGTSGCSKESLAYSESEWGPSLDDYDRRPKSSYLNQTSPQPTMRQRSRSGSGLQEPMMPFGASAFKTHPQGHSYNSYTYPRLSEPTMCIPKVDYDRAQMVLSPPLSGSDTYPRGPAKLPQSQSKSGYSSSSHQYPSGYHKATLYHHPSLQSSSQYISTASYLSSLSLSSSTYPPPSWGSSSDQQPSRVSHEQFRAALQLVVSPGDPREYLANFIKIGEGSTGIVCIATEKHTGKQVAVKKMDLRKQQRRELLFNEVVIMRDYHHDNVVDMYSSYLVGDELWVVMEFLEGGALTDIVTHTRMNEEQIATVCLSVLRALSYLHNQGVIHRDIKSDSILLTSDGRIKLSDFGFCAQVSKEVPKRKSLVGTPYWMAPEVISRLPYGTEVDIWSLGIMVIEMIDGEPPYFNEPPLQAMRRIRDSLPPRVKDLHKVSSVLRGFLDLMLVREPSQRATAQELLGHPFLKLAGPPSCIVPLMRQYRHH
Chain of NEK7 (human) (Q8TDX7 whole entry, looked up): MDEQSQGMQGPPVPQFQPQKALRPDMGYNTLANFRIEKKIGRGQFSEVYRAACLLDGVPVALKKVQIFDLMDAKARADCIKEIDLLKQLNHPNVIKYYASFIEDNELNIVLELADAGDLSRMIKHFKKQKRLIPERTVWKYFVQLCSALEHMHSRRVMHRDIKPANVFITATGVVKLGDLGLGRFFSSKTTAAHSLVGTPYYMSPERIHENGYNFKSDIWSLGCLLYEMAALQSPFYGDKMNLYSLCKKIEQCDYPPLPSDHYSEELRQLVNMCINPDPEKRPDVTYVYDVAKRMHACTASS
Chain of MAP2K4 (human) (P45985 whole entry, looked up): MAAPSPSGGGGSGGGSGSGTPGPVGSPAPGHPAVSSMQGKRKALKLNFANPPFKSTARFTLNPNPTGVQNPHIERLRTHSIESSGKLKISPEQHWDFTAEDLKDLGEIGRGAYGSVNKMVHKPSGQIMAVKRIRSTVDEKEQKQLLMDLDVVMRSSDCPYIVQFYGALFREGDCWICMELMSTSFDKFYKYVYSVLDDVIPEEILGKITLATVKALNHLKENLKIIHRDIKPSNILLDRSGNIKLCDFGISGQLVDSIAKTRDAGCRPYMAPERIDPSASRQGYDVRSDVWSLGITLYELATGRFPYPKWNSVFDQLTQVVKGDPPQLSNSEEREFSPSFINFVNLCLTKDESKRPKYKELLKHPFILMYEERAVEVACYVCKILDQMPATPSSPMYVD
Chain of NEK6 (human) (Q9HC98 whole entry, looked up): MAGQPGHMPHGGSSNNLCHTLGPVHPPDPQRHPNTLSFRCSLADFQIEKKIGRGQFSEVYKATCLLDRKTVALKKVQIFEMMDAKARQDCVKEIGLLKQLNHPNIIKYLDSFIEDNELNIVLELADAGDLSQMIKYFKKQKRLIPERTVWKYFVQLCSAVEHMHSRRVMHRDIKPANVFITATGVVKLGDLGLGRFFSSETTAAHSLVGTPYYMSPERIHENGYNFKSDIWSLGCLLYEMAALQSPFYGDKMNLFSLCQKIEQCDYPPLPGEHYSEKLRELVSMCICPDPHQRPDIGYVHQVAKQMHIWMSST
Chain of TLK1 (human) (Q9UKI8 whole entry, looked up): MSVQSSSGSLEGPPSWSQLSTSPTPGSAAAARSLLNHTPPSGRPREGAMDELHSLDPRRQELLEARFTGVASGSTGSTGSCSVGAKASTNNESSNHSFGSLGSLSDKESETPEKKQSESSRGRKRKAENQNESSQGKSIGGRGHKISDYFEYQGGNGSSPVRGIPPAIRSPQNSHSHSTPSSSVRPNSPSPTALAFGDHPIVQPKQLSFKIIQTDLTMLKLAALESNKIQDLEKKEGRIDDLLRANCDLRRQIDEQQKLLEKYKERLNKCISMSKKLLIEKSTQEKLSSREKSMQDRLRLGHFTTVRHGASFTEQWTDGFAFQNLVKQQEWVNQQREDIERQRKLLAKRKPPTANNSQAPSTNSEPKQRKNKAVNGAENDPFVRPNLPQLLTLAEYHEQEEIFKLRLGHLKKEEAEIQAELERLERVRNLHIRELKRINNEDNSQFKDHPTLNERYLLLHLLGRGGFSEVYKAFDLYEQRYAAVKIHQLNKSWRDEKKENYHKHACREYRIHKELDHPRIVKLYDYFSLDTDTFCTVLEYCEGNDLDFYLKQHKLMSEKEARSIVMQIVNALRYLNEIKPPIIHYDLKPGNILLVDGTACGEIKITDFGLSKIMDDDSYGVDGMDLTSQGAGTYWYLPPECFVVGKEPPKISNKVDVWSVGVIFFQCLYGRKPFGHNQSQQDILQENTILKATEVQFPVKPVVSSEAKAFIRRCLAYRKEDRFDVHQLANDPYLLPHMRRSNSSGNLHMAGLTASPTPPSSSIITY
Chain of MST4 (human) (Q9P289 whole entry, looked up): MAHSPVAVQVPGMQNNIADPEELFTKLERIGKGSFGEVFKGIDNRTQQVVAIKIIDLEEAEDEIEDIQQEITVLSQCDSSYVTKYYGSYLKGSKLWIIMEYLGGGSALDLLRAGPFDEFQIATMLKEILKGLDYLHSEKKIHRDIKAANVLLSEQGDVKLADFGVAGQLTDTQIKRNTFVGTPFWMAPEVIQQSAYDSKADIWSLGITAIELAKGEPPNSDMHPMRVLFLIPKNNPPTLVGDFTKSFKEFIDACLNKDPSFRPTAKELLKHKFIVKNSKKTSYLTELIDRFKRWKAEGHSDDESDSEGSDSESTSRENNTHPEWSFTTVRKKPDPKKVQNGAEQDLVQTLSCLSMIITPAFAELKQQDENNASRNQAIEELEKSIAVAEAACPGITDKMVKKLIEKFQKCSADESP

Q: What does the source list for CCCS(=O)(=O)Nc1ccc(F)c(C(=O)c2c[nH]c3ncc(-c4ccc(Cl)cc4)cc23)c1F?
A: kinase still bound, per cent of control (MAPK6 (human)): 100%; kinase still bound, per cent of control [1]: 100%; kinase still bound, per cent of control (CDC42BPG (human)): 34%; kinase still bound, per cent of control (NUAK1 (human)): 100%; kinase still bound, per cent of control (RIPK2 (human)): 4.3%; kinase still bound, per cent of control (PIK3CB (human)): 100%; kinase still bound, per cent of control (NEK6 (human)): 100%; kinase still bound, per cent of control (IKBKE (human)): 100%; kinase still bound, per cent of control (MELK (human)): 100%; kinase still bound, per cent of control (MAPK15 (human)): 89%; kinase still bound, per cent of control (PIK3C2B (human)): 100%; kinase still bound, per cent of control (ACVR2A (human)): 100%; kinase still bound, per cent of control (AKT1 (human)): 100%; kinase still bound, per cent of control (ACVRL1 (human)): 65%; kinase still bound, per cent of control (INSR (human)): 78%; kinase still bound, per cent of control [2]: 83%; kinase still bound, per cent of control (STK3 (human)): 1.9%; kinase still bound, per cent of control (CSK (human)): 7.4%; kinase still bound, per cent of control (ZAP70 (human)): 90%; kinase still bound, per cent of control (PRKCQ (human)): 43%; kinase still bound, per cent of control (PAK7 (human)): 78%; kinase still bound, per cent of control (NEK7 (human)): 100%; kinase still bound, per cent of control (TEK (human)): 62%; kinase still bound, per cent of control (MAP2K4 (human)): 5%; kinase still bound, per cent of control (RAF1 (human)): 0.95%; kinase still bound, per cent of control (IGF1R (human)): 93%; kinase still bound, per cent of control (MST4 (human)): 100%; kinase still bound, per cent of control (WEE1 (human)): 100%; kinase still bound, per cent of control (FGR (human)): 9.2%; kinase still bound, per cent of control (TNIK (human)): 15%; kinase still bound, per cent of control (TLK1 (human)): 95%; kinase still bound, per cent of control (PRKCD (human)): 100%; kinase still bound, per cent of control (PHKG1 (human)): 100%; kinase still bound, per cent of control [3]: 84%; kinase still bound, per cent of control (STK36 (human)): 4.6%; kinase still bound, per cent of control (NTRK1 (human)): 90%; kinase still bound, per cent of control (PDGFRA (human)): 0.45%; kinase still bound, per cent of control (BRSK2 (human)): 100%

Q: With Cc1cc([C@@H](C)Nc2ccccc2C(=O)O)c2nc(N3CCOCC3)cc(=O)n2c1 as the compound, how does the kinase still bound, per cent of control (MAPK6 (human)) read?
A: 100%

Q: What about the kinase still bound, per cent of control [1] of the same compound?
A: 100%

Q: And the kinase still bound, per cent of control (CDC42BPG (human))?
A: 100%

Q: What about the kinase still bound, per cent of control (NUAK1 (human)) of the same compound?
A: 100%

Q: And the kinase still bound, per cent of control (RIPK2 (human))?
A: 94%

Q: And the kinase still bound, per cent of control (NEK6 (human))?
A: 100%

Q: And the kinase still bound, per cent of control (IKBKE (human))?
A: 85%

Q: What about the kinase still bound, per cent of control (ERBB4 (human)) of the same compound?
A: 100%

Q: And the kinase still bound, per cent of control (MELK (human))?
A: 100%

Q: What about the kinase still bound, per cent of control (MAPK15 (human)) of the same compound?
A: 100%

Q: And the kinase still bound, per cent of control (PIK3C2B (human))?
A: 0.35%

Q: And the kinase still bound, per cent of control (ACVR2A (human))?
A: 94%

Q: And the kinase still bound, per cent of control (AKT1 (human))?
A: 100%

Q: What about the kinase still bound, per cent of control (ACVRL1 (human)) of the same compound?
A: 89%

Q: What about the kinase still bound, per cent of control (INSR (human)) of the same compound?
A: 100%

Q: And the kinase still bound, per cent of control [2]?
A: 94%

Q: What about the kinase still bound, per cent of control (PRKG2 (human)) of the same compound?
A: 98%

Q: What about the kinase still bound, per cent of control (STK3 (human)) of the same compound?
A: 66%

Q: And the kinase still bound, per cent of control (CSK (human))?
A: 100%

Q: And the kinase still bound, per cent of control (ZAP70 (human))?
A: 100%

Q: What about the kinase still bound, per cent of control (PRKCQ (human)) of the same compound?
A: 97%

Q: And the kinase still bound, per cent of control (PAK7 (human))?
A: 99%

Q: And the kinase still bound, per cent of control (NEK7 (human))?
A: 100%

Q: And the kinase still bound, per cent of control (TEK (human))?
A: 100%

Q: What about the kinase still bound, per cent of control (MAP2K4 (human)) of the same compound?
A: 100%

Q: What about the kinase still bound, per cent of control (RAF1 (human)) of the same compound?
A: 100%

Q: What about the kinase still bound, per cent of control (IGF1R (human)) of the same compound?
A: 100%

Q: What about the kinase still bound, per cent of control (MST4 (human)) of the same compound?
A: 100%

Q: And the kinase still bound, per cent of control (WEE1 (human))?
A: 100%

Q: What about the kinase still bound, per cent of control (FGR (human)) of the same compound?
A: 95%

Q: And the kinase still bound, per cent of control (TNIK (human))?
A: 98%

Q: What about the kinase still bound, per cent of control (TLK1 (human)) of the same compound?
A: 96%

Q: And the kinase still bound, per cent of control (PRKCD (human))?
A: 82%

Q: What about the kinase still bound, per cent of control (PHKG1 (human)) of the same compound?
A: 93%

Q: What about the kinase still bound, per cent of control [3] of the same compound?
A: 62%

Q: What about the kinase still bound, per cent of control (STK36 (human)) of the same compound?
A: 100%

Q: What about the kinase still bound, per cent of control (NTRK1 (human)) of the same compound?
A: 88%

Q: And the kinase still bound, per cent of control (PDGFRA (human))?
A: 84%

Q: And the kinase still bound, per cent of control (BRSK2 (human))?
A: 100%

Q: For Cc1ccc2nc(NCCN)c3ncc(C)n3c2c1, which kinase still bound, per cent of control (MAPK6 (human)) is on record?
A: 27%

Q: And the kinase still bound, per cent of control [1]?
A: 47%

Q: What about the kinase still bound, per cent of control (CDC42BPG (human)) of the same compound?
A: 94%

Q: And the kinase still bound, per cent of control (NUAK1 (human))?
A: 88%

Q: What about the kinase still bound, per cent of control (RIPK2 (human)) of the same compound?
A: 100%

Q: And the kinase still bound, per cent of control (PIK3CB (human))?
A: 88%

Q: What about the kinase still bound, per cent of control (NEK6 (human)) of the same compound?
A: 100%

Q: What about the kinase still bound, per cent of control (IKBKE (human)) of the same compound?
A: 100%

Q: And the kinase still bound, per cent of control (ERBB4 (human))?
A: 100%

Q: What about the kinase still bound, per cent of control (MELK (human)) of the same compound?
A: 96%

Q: What about the kinase still bound, per cent of control (MAPK15 (human)) of the same compound?
A: 19%

Q: What about the kinase still bound, per cent of control (PIK3C2B (human)) of the same compound?
A: 100%

Q: What about the kinase still bound, per cent of control (ACVR2A (human)) of the same compound?
A: 92%

Q: What about the kinase still bound, per cent of control (AKT1 (human)) of the same compound?
A: 100%

Q: And the kinase still bound, per cent of control (ACVRL1 (human))?
A: 93%

Q: What about the kinase still bound, per cent of control (INSR (human)) of the same compound?
A: 99%

Q: And the kinase still bound, per cent of control [2]?
A: 100%

Q: And the kinase still bound, per cent of control (PRKG2 (human))?
A: 100%

Q: And the kinase still bound, per cent of control (STK3 (human))?
A: 90%

Q: And the kinase still bound, per cent of control (CSK (human))?
A: 100%

Q: What about the kinase still bound, per cent of control (ZAP70 (human)) of the same compound?
A: 100%

Q: And the kinase still bound, per cent of control (PRKCQ (human))?
A: 99%

Q: And the kinase still bound, per cent of control (PAK7 (human))?
A: 100%

Q: And the kinase still bound, per cent of control (NEK7 (human))?
A: 100%

Q: What about the kinase still bound, per cent of control (TEK (human)) of the same compound?
A: 100%

Q: And the kinase still bound, per cent of control (MAP2K4 (human))?
A: 100%

Q: And the kinase still bound, per cent of control (RAF1 (human))?
A: 100%

Q: And the kinase still bound, per cent of control (IGF1R (human))?
A: 90%

Q: And the kinase still bound, per cent of control (MST4 (human))?
A: 95%

Q: What about the kinase still bound, per cent of control (WEE1 (human)) of the same compound?
A: 100%

Q: What about the kinase still bound, per cent of control (FGR (human)) of the same compound?
A: 100%

Q: What about the kinase still bound, per cent of control (TNIK (human)) of the same compound?
A: 100%

Q: And the kinase still bound, per cent of control (TLK1 (human))?
A: 82%

Q: And the kinase still bound, per cent of control (PRKCD (human))?
A: 100%

Q: What about the kinase still bound, per cent of control (PHKG1 (human)) of the same compound?
A: 95%

Q: And the kinase still bound, per cent of control [3]?
A: 100%

Q: And the kinase still bound, per cent of control (NTRK1 (human))?
A: 100%

Q: And the kinase still bound, per cent of control (BRSK2 (human))?
A: 100%
